Source: patent publication US20120196918A1, “PREVENTING ISLET INFLAMMATION AND DYSFUNCTION AND MAINTAINING PROPER GLUCOSE LEVELS BY CONTROLLING eIF5A AND ITS HYPUSINATION” (priority 2009, published 2012)

Tests used:
[1] = system: iNOS; test: Cytokine-induced iNOS protein in islets from siRNA-injected mice (immunoblot); type: cell-based, mouse; conditions: cytokines 4 h
Procedure: Because nitric oxide is known to be a primary effector of islet dysfunction in response to cytokine-induced stress, the transcription of the gene encoding iNOS (Nos2) was also examined.
Cytokine and inhibitor incubation studies: For cytokine incubation assays, a 1000× cocktail of cytokines containing 5 μg/ml IL1β, 10 μg/ml TNFα, and 100 μg/ml IFNγ (all prepared in 0.1% BSA in Tris-buffered saline) was applied at 1× final concentration to groups of 50 islets or 1×10^6 INS-1 (832/13) cells for a total of 4 h at 37° C. […]
(§1) Immunoblot and nitrite and iNOS assays: Whole cell extracts were resolved by electrophoresis on a 4-20% SDS-polyacrylamide gel, followed by immunoblot using anti-eIF5A1, anti-eIF5A2, anti-iNOS, anti-GFP, or anti-actin primary antibodies and fluorophore-labeled secondary antibodies. Immunoblots were visualized using the Li-Cor® Odyssey® system (Li-Cor Biosciences) and quantitated by scanning fluorometry using Odyssey Imaging v. […] Nitrite was quantitated by measuring nitric oxide-derived nitrite from INS-1 cell culture medium using the Griess reagent (Promega) according to the manufacturer's recommendations. iNOS activity was measured using a commercially available kit (Cayman).

[2] = system: eIF5A-Hyp; test: New hypusine formation (3H-spermidine incorporation) in INS-1 (832/13) cells; type: cell-based, rat; conditions: GC7 125 μM overnight
Source text: eIF5A1 and eIF5A2 are the only proteins known to contain the unique amino acid hypusine at position 50. Hypusine is formed as a posttranslational modification of residue Lys50 in a reaction requiring spermidine and catalyzed by the sequential actions of the enzymes deoxyhypusine synthase (DHS) and deoxyhypusine hydroxylase (DOHH) (Chen, K Y, and Liu, A Y. Biochemistry and function of hypusine formation on eukaryotic initiation factor 5A. Biol Signals. 1997; 6(3):105-109). […] To further investigate the mechanism of eIF5A-regulated translation of Nos2, studies were performed following overnight incubation of cells with mimosine (an inhibitor of DOHH) and GC7 (an inhibitor of DHS). […] Similar data using GC7 were obtained in primary mouse islets (data not shown) and in human islets (FIGS. 5F and 5G). […]
Measurement of hvpusination: Approximately 100 islets or 1×10^6 INS-1 cells per condition were incubated with 1.5 μCi ^3H-spermidine (Perkin Elmer) in the presence of 1 mM aminoguanidine. […] Gels were visualized by fluorography, and bands were quantitated using Kodak Molecular Imaging Software v. […]

[3] = system: iNOS; test: Cytokine-induced iNOS protein in INS-1 cells (immunoblot); type: cell-based, rat
Source text: eIF5A1 and eIF5A2 are the only proteins known to contain the unique amino acid hypusine at position 50. Hypusine is formed as a posttranslational modification of residue Lys50 in a reaction requiring spermidine and catalyzed by the sequential actions of the enzymes deoxyhypusine synthase (DHS) and deoxyhypusine hydroxylase (DOHH) (Chen, K Y, and Liu, A Y. Biochemistry and function of hypusine formation on eukaryotic initiation factor 5A. Biol Signals. 1997; 6(3):105-109). […] To further investigate the mechanism of eIF5A-regulated translation of Nos2, studies were performed following overnight incubation of cells with mimosine (an inhibitor of DOHH) and GC7 (an inhibitor of DHS). […] Similar data using GC7 were obtained in primary mouse islets (data not shown) and in human islets (FIGS. 5F and 5G).
(§2) Because GC7 is known to be inactivated by the action amine oxidases, which are abundant in serum, typical studies with GC7 in the literature have used aminoguanidine to inhibit amine oxidases (16). […] To rule out possible adverse effects of GC7 on cell viability, quantitative 2 color fluorescence analysis of live (calcein-AM-positive) and dead (ethidium homodimer-1-positive) cells were performed using fluorescence cytometry.
(§3) Cytokine and inhibitor incubation studies: For cytokine incubation assays, a 1000× cocktail of cytokines containing 5 μg/ml IL1β, 10 μg/ml TNFα, and 100 μg/ml IFNγ (all prepared in 0.1% BSA in Tris-buffered saline) was applied at 1× final concentration to groups of 50 islets or 1×10^6 INS-1 (832/13) cells for a total of 4 h at 37° C. For GC7 incubation studies, GC7 was prepared at a stock concentration of 125 mM in 10 mM acetic acid and applied to cultures of 50 islets or 1×10^6 INS-1 cells to obtain the final concentrations indicted in the figures. Where needed, GC7 was protected from amine oxidases in serum by addition of 1 mM aminoguanidine (Sigma). Cells were incubated with GC7 overnight (˜16 h) at 37° C. prior to analysis. Cells were exposed to Leptomycin B (Cayman Chemicals) for 3 hours; leptomycin B was prepared at a 1000× stock concentration of 20 μg/ml in ethanol.
as §1

[4] = system: iNOS; test: Nitrite release into INS-1 cell medium (Griess reagent); type: cell-based, rat; conditions: increasing GC7 concentrations, cytokines 4 h; greatest inhibition at 125 μM
Source text: (§4) eIF5A1 and eIF5A2 are the only proteins known to contain the unique amino acid hypusine at position 50. Hypusine is formed as a posttranslational modification of residue Lys50 in a reaction requiring spermidine and catalyzed by the sequential actions of the enzymes deoxyhypusine synthase (DHS) and deoxyhypusine hydroxylase (DOHH) (Chen, K Y, and Liu, A Y. Biochemistry and function of hypusine formation on eukaryotic initiation factor 5A. Biol Signals. 1997; 6(3):105-109). […] To further investigate the mechanism of eIF5A-regulated translation of Nos2, studies were performed following overnight incubation of cells with mimosine (an inhibitor of DOHH) and GC7 (an inhibitor of DHS). […]
as §1

[5] = system: iNOS; test: Cytokine-induced iNOS protein in human islets (immunoblot); type: cell-based; conditions: incubation with GC7, cytokines
Source text: as §4, §1

[6] = system: iNOS; test: iNOS activity assay (commercial kit); type: biochemical; conditions: GC7 125 μM
Procedure: as §2
Immunoblot and nitrite and iNOS assays: Whole cell extracts were resolved by electrophoresis on a 4-20% SDS-polyacrylamide gel, followed by immunoblot using anti-eIF5A1, anti-eIF5A2, anti-iNOS, anti-GFP, or anti-actin primary antibodies and fluorophore-labeled secondary antibodies. Immunoblots were visualized using the Li-Cor® Odyssey® system (Li-Cor Biosciences) and quantitated by scanning fluorometry using Odyssey Imaging v. 3.0 software (Li-Cor Biosciences). Nitrite was quantitated by measuring nitric oxide-derived nitrite from INS-1 cell culture medium using the Griess reagent (Promega) according to the manufacturer's recommendations. iNOS activity was measured using a commercially available kit (Cayman).

[7] = system: INS-1 cells; test: GSCa and GSIS of INS-1 cells exposed to cytokines; type: cell-based, rat; conditions: preincubation with 125 μM GC7, cytokines 4 h
Procedure: GSCa and GSIS studies were carried out to assess INS-1 cell function in the presence of cytokines and GC7. […] This asynchronous pattern may be related to the dispersed nature of insulinoma cells compared to f3 cells in an intact islet.
as §3, with “Cells were exposed to Leptomycin B (Cayman Chemicals) for 3 hours; leptomycin B was prepared at a 1000× stock concentration of 20 μg/ml in ethanol.” left out
GSCa imaging assays: Intracellular Ca^2+ ((Ca2+)i) was measured using the ratiometric Ca^2+ indicator fura-2 AM using a modification of previously published methods (79). The glucose-stimulated (Ca2+)i response (GSCa) was defined as the difference between ratio measurements (340/380 nm fluorescence) in 11 mM vs. 3 mM glucose. Data were analyzed with IP Lab's software version 4.0 (Scanalytics). […]

Molecule | induction of iNOS protein in islets [1] | new hypusine formation in INS-1 (832/13) [2] | concentration at which inhibition of iNOS was observed ([3]; co-incubation with 1 mM aminoguanidine) [µM] | iNOS protein after cytokines ([3]; increasing inhibitor concentrations overnight, cytokines 4 h) | concentration required to substantially block iNOS ([3]; without aminoguanidine) [µM] | nitrite release into the medium [4] | iNOS protein levels in human islets [5] | inhibition of iNOS activity [6] | GSCa and GSIS after cytokines [7]
5′-AACGGAAUGACUUCCAGCUGA-3′ (siSTABLE modification, further chemistry not given here) [si-eIF5A] | significantly attenuated | – | – | – | – | – | – | – | –
NCCCCCCCN=C(N)N [GC7] | – | effectively inhibits new hypusine formation | ~3 | dose-dependent attenuation | > 30 | dose-dependent attenuation | dose-dependent inhibition | does not appear to inhibit iNOS activity | reverses the suppressive effect of cytokines on GSCa and GSIS almost completely
